Consider 2 substances from patent US12228565B2, “Blood cell lysis compositions and uses thereof” (Instrumentation Laboratory Company, priority 2021, dated 2025).

A short description of data set [1]: Foam height of surfactant in water based solution (Ross-Miles method). Format: physicochemical. An excerpt: (§1) Surfactants used for lysing, including the secondary alcohol ethoxylates described herein, may lower surface tension in a liquid blood sample and induce foam formation in the blood sample as air is mixed into the blood sample. Foam is detrimental to optical absorbance measurements because it causes additional light scattering. In some implementations, surfactants for performing cell lysis in CO-Oximetry may reduce or minimize foam formation and/or produce foam that dissipates quickly prior to spectral measurements. […] (Celsius). […] Standard measurements of the foam height may be taken, for example, five minutes after addition of the surfactant to a water based solution. The foam height produced by a secondary alcohol ethoxylate may be measured, for example, using the Ross-Miles method.
(§2) Triton-X100 is a control (or reference) surfactant against which the secondary alcohol ethoxylate surfactants are compared. […] In Table 1 below, […], which is a property of the surfactant that indicates/relates to the effectiveness of the material as a surfactant.

Data set [2] is described as follows: Surface tension of surfactant. It is filed as physicochemical.
Text: as §1, §2

The next data set relates to whole blood cells. Conditions: after 1 to 2 seconds; composition of Table 2, surfactant 9-14%.

Text for whole blood cells: The blood sample analyzed by CO-Oximeter system 5 may be a whole blood sample that is lysed using one or more of the blood cell lysing compositions described herein. More specifically, in example CO-Oximeter 5, a blood cell lysis composition and a blood sample are introduced into a mixing chamber—e.g., through a mixing valve—in an optical cell 7. Movement of the blood sample and blood cell lysis composition through the mixing chamber under simultaneous actuation implemented by a solenoid causes the blood sample and lysis composition to simultaneously mix and lyse the red blood cells. The resulting mixture constitutes a lysed blood sample that is usable to obtain optical absorbance measurements by the CO-Oximeter with a reduction or elimination of scattering effects caused by red blood cells.
In an example testing procedure, secondary alcohol ethoxylate1 and secondary alcohol ethoxylate2 were included in the example blood cell lysis composition described with respect to Table 2 below at concentrations of 9% to 14% and tested in a CO-Oximetry system of the type described herein.

For Triton X-100 [reference compound], in data set [1], the “Foam Height—5 minutes (0.1 weight % actives)” value came out at 107 mm and the “Foam height—Initial (0.1 weight % actives)” value was 128 mm. The “Surface Tension (1% actives, 25° C.)” value in data set [2] came to 33 dynes/ dynes/cm.

Consider “Tergitol™ Type 15-S-9 [secondary alcohol ethoxylate2]”, for which the “lysis of whole blood cells” value in the data set on whole blood cells is “about 100%”. In data set [1], the “Foam Height—5 minutes (0.1 weight % actives)” value is given as 43 mm and the “Foam height—Initial (0.1 weight % actives)” value stood at 124 mm. For the same substance, the “Surface Tension (1% actives, 25° C.)” value in data set [2] was 30 dynes/cm.
